In the experiment the test system is PDE1. In words: In vitro HTRF PDE1 inhibition assay. Format: biochemical. As to conditions: HTRF cGMP assay, 100 nM cyclic GMP, PDE (1A3, 1B or 1C) with calmodulin, 45 minutes at 37° C.; isoform of the tabulated values not stated. The source says: An exemplary procedure for the in vitro Homogenous Time Resolved Fluorescence assay, which can be used to determine the inhibitory action of compounds of the invention toward. PDE1 or its isoforms, follows.
The HTRF PDE1 assay utilized the HTRF (Homogenous Time Resolved Fluorescence) technology, which is based on the competition between unlabeled cyclic nucleotide and cyclic nucleotide labeled with XL665 for the binding to cyclic nucleotide-specific antibody labeled with cryptate. The HTRF signal is thus inversely proportional to the concentration of cyclic nucleotide being measured. Since phosphodiesterases break down cyclic nucleotides the HTRF signal was used to determine PDE activity.
The Cisbio cGMP HTRF assay kit (Cat no: 62GM2PEC) was utilized. Cyclic GMP was diluted to 200 nM in HTRF assay buffer (1 mM CaCl2, 10 mM MgCl2, 10 mM Tris-HCl, 0.1% BSA, pH7.4). 10 μl of compound or DMSO was diluted in 200 nM cyclic GMP solution and added to wells of a 96 well white plate to give 100 nM cyclic GMP in 1% DMSO final concentration. PDE (1A3, 1B or 1C) was diluted to 2× working concentration in HTRF assay buffer with […] Calmodulin, and 10 μl was added to initiate the reaction. The plate was then incubated for 45 minutes at 37° C. d2-Labelled cyclic GMP and anti-cGMP cryptate were diluted in 50 mM phosphate buffer, 0.8M KF, 1% Triton X100, 0.2% BSA, pH7.0. Following incubation 10 μl d2-cGMP, then 10 μl anti cGMP cryptate were added to each well and the plate was incubated for 45 minutes at room temperature. The plate was then read on Perkin Elmer Victor at 2 different FRET readings ex/emm 340 nm/665 nm and 340 nm/615 nm.
Compounds having an IC50 of <1 μM, are denoted as +++. Compounds having an IC50 of 1-10 μM, are denoted as ++. Compounds having an IC50 of >10 μM, are denoted as +.
(In general: Time-resolved FRET reads energy transfer from a long-lived donor to a nearby acceptor.)
With `O=c1c2cnc(C3CCOC3)n2nc2n1CCN(Cc1ccc(Cl)cc1)C2` (racemic) [Compound I-233, (±)-7-(4-Chlorobenzyl)-3-(tetrahydrofuran-3-yl)-8,9-dihydro-6H-imidazo[5,1-f]pyrazino[2,1-c][1,2,4]triazin-11(7H)-one], the half-maximal inhibitory concentration (IC50) (commonly the concentration that inhibits the measured activity by half) was 1000 to 10000 nM. With `COc1cccc(CN2CCn3c(nc4c(cnn4C4CCCC4)c3=O)C2)c1` [Compound I-81, 1-Cyclopentyl-8-(3-methoxybenzyl)-6,7,8,9-tetrahydropyrazino[1,2-a]pyrazolo[3,4-d]pyrimidin-4(1H)-one], the IC50 was less than 1000 nM.

Compound `COc1ccc(CN2CCn3c(nc4c(cnn4C(C)C)c3=O)C2)cc1` [Compound I-82, 1-Isopropyl-8-(4-methoxybenzyl)-6,7,8,9-tetrahydropyrazino[1,2-a]pyrazolo[3,4-d]pyrimidin-4(1H)-one] registered an IC50 of less than 1000 nM. The result for `COc1cccc(N2CCn3c(nn4c(C(C)C)ncc4c3=O)C2)c1` [Compound I-174, 3-Isopropyl-7-(3-methoxyphenyl)-8,9-dihydro-6H-imidazo[5,1-f]pyrazino[2,1-c][1,2,4]triazin-11(7H)-one] reads less than 1000 nM. In the case of `CC(C)n1ncc2c(=O)n3c(nc21)CN(C)CC3` [Compound I-18, 1-Isopropyl-8-methyl-6,7,8,9-tetrahydropyrazino[1,2-a]pyrazolo[3,4-d]pyrimidin-4(1H)-one], the IC50 is greater than 10000 nM.

Compound `COc1cccc(N2CCn3c(nc4c(cnn4C4CCCC4)c3=O)C2)c1` [Compound I-98, 1-Cyclopentyl-8-(3-methoxyphenyl)-6,7,8,9-tetrahydropyrazino[1,2-a]pyrazolo[3,4-d]pyrimidin-4(1H)-one] gave an IC50 of less than 1000 nM. The result for `CC(C)CC1Cn2c(nc3c(cnn3C(C)C)c2=O)CN1c1ccc(Cl)cc1` (racemic) [Compound I-172, (±)-8-(4-Chlorophenyl)-7-isobutyl-1-isopropyl-6,7,8,9-tetrahydropyrazino[1,2-a]pyrazolo[3,4-d]pyrimidin-4(1H)-one] reads less than 1000 nM; that for `CC1CN(Cc2ccccc2)Cc2nc3c(cnn3C3CCCC3)c(=O)n21` (racemic) [Compound I-101, (±)-8-Benzyl-1-cyclopentyl-6-methyl-6,7,8,9-tetrahydropyrazino[1,2-a]pyrazolo[3,4-d]pyrimidin-4(1H)-one], 1000 to 10000 nM; that for `Cc1ccc(CN2CCn3c(nn4c(C(C)C)ncc4c3=O)C2)cn1` [Compound I-188, 3-Isopropyl-7-((6-methylpyridin-3-yl)methyl)-8,9-dihydro-6H-imidazo[5,1-f]pyrazino[2,1-c][1,2,4]triazin-11(7H)-one], 1000 to 10000 nM. The compound `CC1Cn2c(nc3c(cnn3C(C)C)c2=O)CN1` (racemic) [Compound I-103, (±)-1-Isopropyl-7-methyl-6,7,8,9-tetrahydropyrazino[1,2-a]pyrazolo[3,4-d]pyrimidin-4(1H)-one] had an IC50 greater than 10000 nM. The result for `CC(C)n1ncc2c(=O)n3c(nc21)CN(Cc1ccncc1)CC3` [Compound I-136, 1-Isopropyl-8-(pyridin-4-ylmethyl)-6,7,8,9-tetrahydropyrazino[1,2-a]pyrazolo[3,4-d]pyrimidin-4(1H)-one] reads 1000 to 10000 nM; that for `CC(C)n1ncc2c(=O)n3c(nc21)CN(Cc1cnccn1)CC3` [Compound I-202, 1-Isopropyl-8-(pyrazin-2-ylmethyl)-6,7,8,9-tetrahydropyrazino[1,2-a]pyrazolo[3,4-d]pyrimidin-4(1H)-one], 1000 to 10000 nM. The result for `CC(C)n1ncc2c(=O)n3c(nc21)C(c1ccccc1)N(C)CC3` (racemic) [Compound I-60, (±)-1-Isopropyl-8-methyl-9-phenyl-6,7,8,9-tetrahydropyrazino[1,2-a]pyrazolo[3,4-d]pyrimidin-4(1H)-one] reads greater than 10000 nM; that for `CCCn1ncc2c(=O)n3c(nc21)CN(c1ccc(Cl)cc1)CC3` [Compound I-167, 8-(4-Chlorophenyl)-1-propyl-6,7,8,9-tetrahydropyrazino[1,2-a]pyrazolo[3,4-d]pyrimidin-4(1H)-one], less than 1000 nM. In the case of `CC(C)c1nn(C)c2c(=O)n3c(nc12)CN(C)CC3` [Compound I-40, 3-Isopropyl-1,6-dimethyl-5,6,7,8-tetrahydropyrazino[1,2-a]pyrazolo[4,3-d]pyrimidin-10(1H)-one] it was greater than 10000 nM; in that of `O=c1c2cnn(-c3ccccc3)c2nc2n1CCNC2` [Compound I-2, 1-Phenyl-6,7,8,9-tetrahydropyrazino[1,2-a]pyrazolo[3,4-d]pyrimidin-4(1H)-one], greater than 10000 nM. The compound `COc1ccc(CN2Cc3nc4c(cnn4C(C)C)c(=O)n3CC2C)cc1` (racemic) [Compound I-146, (±)-1-Isopropyl-8-(4-methoxybenzyl)-7-methyl-6,7,8,9-tetrahydropyrazino[1,2-a]pyrazolo[3,4-d]pyrimidin-4(1H)-one] registered an IC50 of 1000 to 10000 nM. Compound `O=c1c2cnc(C3CCCC3)n2nc2n1CCN(c1ccncc1)C2` [Compound I-185, 3-Cyclopentyl-7-(pyridin-4-yl)-8,9-dihydro-6H-imidazo[5,1-f]pyrazino[2,1-c][1,2,4]triazin-11(7H)-one] came in with an IC50 of 1000 to 10000 nM.

As for `COc1cccc(CN2CCn3c(nc4c(cnn4C(C)C)c3=O)C2)c1` [Compound I-79, 1-Isopropyl-8-(3-methoxybenzyl)-6,7,8,9-tetrahydropyrazino[1,2-a]pyrazolo[3,4-d]pyrimidin-4(1H)-one], the half-maximal inhibitory concentration (IC50) lay within 1000 to 10000 nM.

Turning to `O=c1c2cnn(C3CC3)c2nc2n1CCN(Cc1ccccc1)C2` [Compound I-53, 8-Benzyl-1-cyclopropyl-6,7,8,9-tetrahydropyrazino[1,2-a]pyrazolo[3,4-d]pyrimidin-4(1H)-one], the IC50 is greater than 10000 nM.

Regarding `CC(C)n1ncc2c(=O)n3c(nc21)CN(c1ccc(Cl)c(Cl)c1)CC3` [Compound I-171, 8-(3,4-Dichlorophenyl)-1-isopropyl-6,7,8,9-tetrahydropyrazino[1,2-a]pyrazolo[3,4-d]pyrimidin-4(1H)-one], the IC50 is less than 1000 nM.

Regarding `CC(c1ccc(Cl)cc1)N1CCn2c(nc3c(cnn3C3CCCC3)c2=O)C1` (racemic) [Compound I-113, (±)-8-(1-(4-Chlorophenyl)ethyl)-1-cyclopentyl-6,7,8,9-tetrahydropyrazino[1,2-a]pyrazolo[3,4-d]pyrimidin-4(1H)-one], the IC50 was 1000 to 10000 nM. In the case of `CC(C)Cn1ncc2c(=O)n3c(nc21)CN(Cc1cccc(Cl)c1)CC3` [Compound I-71, 8-(3-Chlorobenzyl)-1-isobutyl-6,7,8,9-tetrahydropyrazino[1,2-a]pyrazolo[3,4-d]pyrimidin-4(1B)-one] it was less than 1000 nM; in that of `COc1ccc(CCN2CCn3c(nn4c(C5CCCC5)ncc4c3=O)C2)cc1` [Compound I-244, 3-Cyclopentyl-7-(4-methoxyphenethyl)-8,9-dihydro-6H-imidazo[5,1-f]pyrazino[2,1-c][1,2,4]triazin-11(7H)-one], 1000 to 10000 nM; in that of `O=c1c2cnc(C3CCC3)n2nc2n1CCN(c1ccc(Cl)cc1)C2` [Compound I-249, 7-(4-Chlorophenyl)-3-cyclobutyl-8,9-dihydro-6H-imidazo[5,1-f]pyrazino[2,1-c][1,2,4]triazin-11(7H)-one], less than 1000 nM. The compound `COc1cc(N2Cc3nc4c(cnn4C(C)C)c(=O)n3CC2C)ccc1F` (racemic) [Compound I-152, (±)-8-(4-Fluoro-3-methoxyphenyl)-1-isopropyl-7-methyl-6,7,8,9-tetrahydropyrazino[1,2-a]pyrazolo[3,4-d]pyrimidin-4(1H)-one] returned an IC50 of less than 1000 nM. In the case of `Cc1nn(C2CCCC2)c2nc3n(c(=O)c12)CCN(Cc1ccc(Cl)cc1)C3` [Compound I-111, 8-(4-Chlorobenzyl)-1-cyclopentyl-3-methyl-6,7,8,9-tetrahydropyrazino[1,2-d]pyrazolo[3,4-d]pyrimidin-4(1H)-one] it was greater than 10000 nM. In the case of `CCCn1ncc2c(=O)n3c(nc21)CN(Cc1ccccc1)CC3` [Compound I-54, 8-Benzyl-1-propyl-6,7,8,9-tetrahydropyrazino[1,2-a]pyrazolo[3,4-d]pyrimidin-4(1H)-one] it was 1000 to 10000 nM. Compound `CC(C)n1ncc2c(=O)n3c(nc21)CN(c1ccc(Cl)cc1)CC3` [Compound I-91, 8-(4-Chlorophenyl)-1-isopropyl-6,7,8,9-tetrahydropyrazino[1,2-a]pyrazolo[3,4-d]pyrimidin-4(1H)-one] displayed an IC50 of less than 1000 nM. The result for `CC(C)n1ncc2c(=O)n3c(nc21)CN(Cc1cccnc1)CC3` [Compound I-135, 1-Isopropyl-8-(pyridin-3-ylmethyl)-6,7,8,9-tetrahydropyrazino[1,2-a]pyrazolo[3,4-d]pyrimidin-4(1H)-one] reads less than 1000 nM; that for `CC(C)c1nn(C)c2c(=O)n3c(nc12)C(C)N(Cc1ccccc1)CC3` (racemic) [Compound I-47, (±)-6-Benzyl-3-isopropyl-1,5-dimethyl-5,6,7,8-tetrahydropyrazino[1,2-a]pyrazolo[4,3-d]pyrimidin-10(1H)-one], greater than 10000 nM.
